Measured values: patent US20100267636A1, “USE OF CYTOCHROME P450-METABOLIZED DRUGS AND GRF MOLECULES IN COMBINATION THERAPY” (THERATECHNOLOGIES INC., priority 2009, published 2010)

Tests used:
[1] = clinical; assay type: in vivo; details: human; for AUC(0-inf) / AUC(0-t) / Cmax / Tmax / half-life: both sexes, 80 mg
Procedure: […] […] N=58 healthy adult (male and female) subjects were enrolled. Dosing occurred in two groups. […] PK/statistics: PK parameters were calculated using standard noncompartmental approaches. […] The final ANOVA models included group, sequence, treatment, and period nested within group as fixed effects and subject nested within group-by-sequence as a random effect. The treatment-by-group term was excluded from the models for the groups combined, to be conservative.

[2] = Plasma PK of TH9507 in simvastatin studies (ELISA); assay type: in vivo, human
Procedure: 2 ml of TH9507 (1 mg/ml injectable solution) was administered by subcutaneous injection under fasting conditions once daily for 7 consecutive days (daily dose of 2 mg TH9507).
N=58 healthy adult (male and female) subjects were enrolled. Dosing occurred in two groups.
PK/statistics: PK parameters were calculated using standard noncompartmental approaches.

[3] = tested on: CYP3A; assay: Impact of TH9507 on CYP3A activity (simvastatin drug interaction studies); assay type: in vivo, human; details: 2 mg TH9507 days 1 to 7, 80 mg simvastatin as CYP3A substrate on Day 6
Description: The final ANOVA models included group, sequence, treatment, and period nested within group as fixed effects and subject nested within group-by-sequence as a random effect. The treatment-by-group term was excluded from the models for the groups combined, to be conservative.

[4] = both sexes, human, plasma, sc, 2 mg

In the case of CCC(C)(C)C(=O)O[C@H]1C[C@@H](C)C=C2C=C[C@H](C)[C@H](CC[C@@H](O)C[C@@H](O)CC(=O)O)[C@H]21 [Simvastatin Acid, simvastatin acid], the AUC(0-inf) ([1]; in vivo, po) is reported as 46.8 ng·h/mL, the AUC(0-t) ([1]; in vivo, po) is reported as 43.4 ng·h/mL and the Cmax ([1]; in vivo, po) is reported as 4.33 ng/mL. For the same compound, the Tmax ([1]; in vivo, po) was 4.5 h, the half-life ([1]; in vivo, po) was 484 min and the AUC(0-inf) ([1]; in vivo, sc) was 39.9 ng·h/mL. It also gave an AUC(0-t) ([1]; in vivo, sc) of 37.5 ng·h/mL, a Cmax ([1]; in vivo, sc) of 4.28 ng/mL and a Tmax ([1]; in vivo, sc) of 4.5 h. For the same compound, the half-life ([1]; in vivo, sc) was 415 min, the “AUC0-inf, A/B Ratio (%)” value ([1]; both, in vivo) was 85.2% and the “AUC0-t, A/B Ratio (%)” value ([1]; both, in vivo) was 86.3%. For the same compound, the “Cmax, A/B Ratio (%)” value ([1]; both, in vivo) was 99.0%.

Compound CCC(C)(C)C(=O)O[C@H]1C[C@@H](C)C=C2C=C[C@H](C)[C@H](CC[C@@H]3C[C@@H](O)CC(=O)O3)[C@H]21 [Simvastatin, (1S,3R,7S,8S,8aR)-8-{2-[(2R,4R)-4-hydroxy-6-oxooxan-2-yl]ethyl}-3,7-dimethyl-1,2,3,7,8,8a-hexahydronaphthalen-1-yl 2,2-dimethylbutanoate, reference compound] has a half-life ([1]; plasma, po, read-out: T1/2, Treatment B (converted)) of 514 min and a half-life ([1]; plasma, sc, read-out: T1/2, Treatment A (converted)) of 457 min.

Compound CC/C=C/CC(=O)N[C@@H](Cc1ccc(O)cc1)C(=O)N[C@@H](C)C(=O)N[C@@H](CC(=O)O)C(=O)N[C@@H](C)C(=O)N[C@H](C(=O)N[C@@H](Cc1ccccc1)C(=O)N[C@H](C(=O)N[C@@H](CC(N)=O)C(=O)N[C@@H](CO)C(=O)N[C@@H](Cc1ccc(O)cc1)C(=O)N[C@@H](CCCNC(=N)N)C(=O)N[C@@H](CCCCN)C(=O)N[C@H](C(=O)N[C@@H](CC(C)C)C(=O)NCC(=O)N[C@@H](CCC(N)=O)C(=O)N[C@@H](CC(C)C)C(=O)N[C@@H](CO)C(=O)N[C@@H](C)C(=O)N[C@@H](CCCNC(=N)N)C(=O)N[C@@H](CCCCN)C(=O)N[C@@H](CC(C)C)C(=O)N[C@@H](CC(C)C)C(=O)N[C@@H](CCC(N)=O)C(=O)N[C@@H](CC(=O)O)C(=O)N[C@H](C(=O)N[C@@H](CCSC)C(=O)N[C@@H](CO)C(=O)N[C@@H](CCCNC(=N)N)C(=O)N[C@@H](CCC(N)=O)C(=O)N[C@@H](CCC(N)=O)C(=O)NCC(=O)N[C@@H](CCC(=O)O)C(=O)N[C@@H](CO)C(=O)N[C@@H](CC(N)=O)C(=O)N[C@@H](CCC(N)=O)C(=O)N[C@@H](CCC(=O)O)C(=O)N[C@@H](CCCNC(=N)N)C(=O)NCC(=O)N[C@@H](C)C(=O)N[C@@H](CCCNC(=N)N)C(=O)N[C@@H](C)C(=O)N[C@@H](CCCNC(=N)N)C(=O)N[C@@H](CC(C)C)C(N)=O)[C@@H](C)CC)C(C)C)[C@@H](C)O)[C@@H](C)CC [TH9507, (hexenoyl trans-3)hGRF(1-44)NH2] has a Tmax ([2]; TH9507 2 mg s.c. once daily, day 6 samples, simvastatin studies, median) of 9 min, an AUC(0-inf) [2, 4] of 1.05 ng·h/mL and an AUC(0-t) [2, 4] of 0.888 ng·h/mL. The Cmax [2, 4] was 3.36 ng/mL, the half-life [2, 4] was 8.4 min and the “impact on CYP3A activity” value [3] was “not significant”.
